Results from ChEMBL document CHEMBL1121463, “N-Acetyl-[2-(O-methyl)tyrosine]arginine-vasopressin, an interesting antagonist of the vasopressor response to vasopressin” (J Med Chem, 1980).
Where a SMILES comes first, the peptide text is derived from it. Bridges are numbered along the chain shown (N, C = ends).

Assays:
Rattus norvegicus [1] = species on record: Rattus norvegicus; assay: Compound was tested for antidiuretic activity in rats; format: ADME, organism-based, Urine; conditions: in vivo
Rattus norvegicus [2] = species on record: Rattus norvegicus; assay: Tested for antidiuretic activity against rats; format: functional, Urine
Rattus norvegicus [3] = species on record: Rattus norvegicus; assay: The vasopressor value (agonistic) of compound was tested on rat […]; format: functional
Rattus norvegicus [4] = species on record: Rattus norvegicus; assay: Compound was tested for anti-vasopressor activity against rat; Inhibitor; format: functional, organism-based
Rattus norvegicus [5] = species on record: Rattus norvegicus; assay: Tested for anti-oxytocic activity against isolated rat uterus; format: functional; conditions: read-out: pA2 (converted)
Rattus norvegicus [6] = species on record: Rattus norvegicus; assay: The anti-oxytocic pA2 value (antagonistic) of compound was tested on isolated rat uterus (with the 0.5 mM Mg+2); format: functional; conditions: read-out: pA2 (converted)
Rattus norvegicus [7] = species on record: Rattus norvegicus; assay: Compound was tested for anti-vasopressor activity against rat; format: functional, organism-based; conditions: read-out: pA2 (converted)
Rattus norvegicus [8] = species on record: Rattus norvegicus; assay: Tested for anti-oxytocic activity against isolated rat uterus; Showed both agonistic and antagonistic activities; format: functional
Rattus norvegicus [9] = species on record: Rattus norvegicus; assay: Compound was tested for anti-vasopressor activity against rat; Weak; format: functional, organism-based

How did the Antidiuretic (Rattus norvegicus [1]) turn out when `NC(=O)CC[C@@H]1NC(=O)[C@H](Cc2ccccc2)NC(=O)[C@H](Cc2ccc(O)cc2)NC(=O)[C@@H](N)CSSC[C@@H](C(=O)N2CCC[C@H]2C(=O)N[C@@H](CCCN=C(N)N)C(=O)NCC(N)=O)NC(=O)[C@H](CC(N)=O)NC1=O` (stereo in doubt; form 1) [VASOPRESSIN] was run?
The Antidiuretic was 323 U/mg.

With `COc1ccc(C[C@@H]2NC(=O)[C@@H](N)CSSC[C@@H](C(=O)N3CCC[C@H]3C(=O)N[C@@H](CCCN=C(N)N)C(=O)NCC(N)=O)NC(=O)[C@H](CC(N)=O)NC(=O)[C@H](CCC(N)=O)NC(=O)[C@H](Cc3ccccc3)NC2=O)cc1` [listing 1 of 2 here] as the molecule, how does the Antidiuretic (Rattus norvegicus [2]) read?
Its Antidiuretic is 386 U/mg.

What about the Vasopressor activity (Rattus norvegicus [3]) of the same molecule?
Its Vasopressor activity is 9.7 units/mg.

For `CC[C@H](C)[C@@H]1NC(=O)[C@H](Cc2ccc(OC)cc2)NC(=O)[C@@H](N)CSSC[C@@H](C(=O)N2CCC[C@H]2C(=O)N[C@@H](CC(C)C)C(=O)NCC(N)=O)NC(=O)[C@H](CC(N)=O)NC(=O)[C@H](CCC(N)=O)NC1=O`, which Antidiuretic (Rattus norvegicus [2]) is on record?
The Antidiuretic was 0.01 U/mg.

`CC[C@H](C)[C@@H]1NC(=O)[C@H](Cc2ccc(O)cc2)NC(=O)[C@@H](N)CSSC[C@@H](C(=O)N2CCC[C@H]2C(=O)N[C@@H](CC(C)C)C(=O)NCC(N)=O)NC(=O)[C@H](CC(N)=O)NC(=O)[C@H](CCC(N)=O)NC1=O` [OXYTOCIN] was tested. Which Antidiuretic (Rattus norvegicus [1]) did it give?
Its Antidiuretic is 4 U/mg.

`CC[C@H](C)[C@@H]1NC(=O)[C@@H](Cc2ccc(OC)cc2)NC(=O)[C@H](NC(N)=O)CSSC[C@@H](C(=O)N2CCC[C@@H]2C(=O)N[C@@H](CC(C)C)C(=O)NCC(N)=O)NC(=O)[C@H](CC(N)=O)NC(=O)[C@@H](CCC(N)=O)NC1=O` was tested. Which pA2 (Rattus norvegicus [4]) did it give?
The pA2 was “Inhibition”.

Which Kb (Rattus norvegicus [5]) does the source give for `CC[C@H](C)[C@@H]1NC(=O)[C@H](Cc2ccc(OC)cc2)NC(=O)[C@@H](NC(N)=O)CSSC[C@@H](C(=O)N2CCC[C@H]2C(=O)N[C@@H](CC(C)C)C(=O)NCC(N)=O)NC(=O)[C@H](CC(N)=O)NC(=O)[C@H](CCC(N)=O)NC1=O` here?
Its Kb is 0.0603 µM.

Which Kb (Rattus norvegicus [5]) does the source give for `CC[C@H](C)[C@@H]1NC(=O)[C@H](Cc2ccc(OC)cc2)NC(=O)[C@@H](NC(C)=O)CSSC[C@@H](C(=O)N2CCC[C@H]2C(=O)N[C@@H](CC(C)C)C(=O)NCC(N)=O)NC(=O)[C@H](CC(N)=O)NC(=O)[C@H](CCC(N)=O)NC1=O` here?
Its Kb is 0.0263 µM.

For `CC[C@H](C)[C@@H]1NC(=O)[C@@H](Cc2ccc(OC)cc2)NC(=O)[C@H](NC(C)=O)CSSC[C@@H](C(=O)N2CCC[C@@H]2C(=O)N[C@@H](CC(C)C)C(=O)NCC(N)=O)NC(=O)[C@H](CC(N)=O)NC(=O)[C@@H](CCC(N)=O)NC1=O`, which pA2 (Rattus norvegicus [4]) is on record?
The pA2 was “Inhibition”.

`CC[C@H](C)[C@@H]1NC(=O)[C@H](Cc2ccc(OC)cc2)NC(=O)[C@@H](NC(=O)CN)CSSC[C@@H](C(=O)N2CCC[C@H]2C(=O)N[C@@H](CC(C)C)C(=O)NCC(N)=O)NC(=O)[C@H](CC(N)=O)NC(=O)[C@H](CCC(N)=O)NC1=O` (H-GCY(Me)IQNCPLG-NH2; disulfide 2-7) was tested. Which Kb (Rattus norvegicus [5]) did it give?
The Kb was 0.141 µM.

Which Kb (Rattus norvegicus [5]) does the source give for `COc1ccc(C[C@@H]2NC(=O)[C@@H](NC(C)=O)CSSC[C@@H](C(=O)N3CCC[C@H]3C(=O)N[C@@H](CCCN=C(N)N)C(=O)NCC(N)=O)NC(=O)[C@H](CC(N)=O)NC(=O)[C@H](CCC(N)=O)NC(=O)[C@H](Cc3ccccc3)NC2=O)cc1` [listing 1 of 2 here] here?
The Kb was 0.0513 µM.

What about the Kb (Rattus norvegicus [6]) of the same molecule?
Its Kb is 0.186 µM.

What about the Kb (Rattus norvegicus [7]) of the same molecule?
The Kb was 0.0661 µM.

What does the source list for `CC[C@H](C)[C@@H]1NC(=O)[C@@H](Cc2ccc(OC)cc2)NC(=O)[C@H](N)CSSC[C@@H](C(=O)N2CCC[C@@H]2C(=O)N[C@@H](CC(C)C)C(=O)NCC(N)=O)NC(=O)[C@H](CC(N)=O)NC(=O)[C@@H](CCC(N)=O)NC1=O`?
pA2 (Rattus norvegicus [8]): Mixed; pA2 (Rattus norvegicus [9]): Weak

Which results are given for `COc1ccc(C[C@@H]2NC(=O)[C@@H](N)CSSC[C@@H](C(=O)N3CCC[C@H]3C(=O)N[C@@H](CCCN=C(N)N)C(=O)NCC(N)=O)NC(=O)[C@H](CC(N)=O)NC(=O)[C@H](CCC(N)=O)NC(=O)[C@H](Cc3ccccc3)NC2=O)cc1` [listing 2 of 2 here]?
Kb (Rattus norvegicus [5]): 0.0363 µM; Kb (Rattus norvegicus [6]): 0.457 µM

With `COc1ccc(C[C@@H]2NC(=O)[C@@H](NC(C)=O)CSSC[C@@H](C(=O)N3CCC[C@H]3C(=O)N[C@@H](CCCN=C(N)N)C(=O)NCC(N)=O)NC(=O)[C@H](CC(N)=O)NC(=O)[C@H](CCC(N)=O)NC(=O)[C@H](Cc3ccccc3)NC2=O)cc1` [listing 2 of 2 here] as the molecule, how does the Antidiuretic (Rattus norvegicus [2]) read?
The Antidiuretic was 0.026 U/mg.

Which Kb (Rattus norvegicus [5]) does the source give for `CC[C@H](C)[C@@H]1NC(=O)[C@H](Cc2ccc(OC)cc2)NC(=O)[C@@H](NC(=O)CNC)CSSC[C@@H](C(=O)N2CCC[C@H]2C(=O)N[C@@H](CC(C)C)C(=O)NCC(N)=O)NC(=O)[C@H](CC(N)=O)NC(=O)[C@H](CCC(N)=O)NC1=O` here?
Its Kb is 0.302 µM.

With `NC(=O)CC[C@@H]1NC(=O)[C@H](Cc2ccccc2)NC(=O)[C@H](Cc2ccc(O)cc2)NC(=O)[C@@H](N)CSSC[C@@H](C(=O)N2CCC[C@H]2C(=O)N[C@@H](CCCN=C(N)N)C(=O)NCC(N)=O)NC(=O)[C@H](CC(N)=O)NC1=O` (stereo in doubt; form 2) [VASOPRESSIN] as the molecule, how does the Antidiuretic (Rattus norvegicus [1]) read?
The Antidiuretic was 212 U/mg.
